Data set [1] has as its target T1, porcine ventricular cardiac S1 (Sus scrofa, UniProt P79293).
T1 construct: tissue Pel-freez; host or cells: frozen porcine ventricular muscle; myosin extracted and digested with alpha-chymotrypsin
The data set can be described thus: Actin-activated myosin S1 ATPase, cardiac. In kind it is biochemical. As for the experimental part: Smooth muscle chicken gizzard S1 was purchased from Cytoskeleton Inc. Other myosin S1 was prepared via published protocols ([21]). Briefly, fresh rabbit psoas and frozen porcine ventricular muscle (Pel-freez) were extracted in 0.3 M KCl, 0.15 M KH2PO4, 1 mM EGTA, 1 mM ATP, 1 mM DTT, pH 6.5, at 4°C. Full-length myosin was purified from each extract via low-ionic precipitations with final precipitation into PM12 buffer (12 mM PIPES, pH 7.0, 2 mM MgCl2). Purified myosin was resuspended in PIPES/EDTA buffer (20 mM PIPES, pH 6.8, 10 mM EDTA, 1 mM DTT) and reacted with 0.2 mg/mL α-chymotrypsin for 30 minutes at room temperature. Proteolysis was quenched with PMSF (final concentration 100 μM), and the reaction was centrifuged for 45 minutes at 230,000g. S1 fragment in the supernatant was dialyzed into PM12 with 0.02% sodium azide and clarified by centrifugation. Sucrose was added to 10% w/v and flash-frozen in liquid N2 and stored at –80°C. […]
A lactate dehydrogenase/pyruvate kinase enzyme-coupled system ([62]) was used to monitor ATP hydrolysis rates in various muscle preparations. […] A multidrop cassette (Thermo Fisher Scientific) dispensed 10 μL of the coupled enzyme system, calcium, and myofibrils to 10 μL ATP, NADH and PEP to initiate the reaction prior to reading on a plate reader (Envision, Perkin Elmer) for 10 minutes per plate at room temperature. […]

The test system of data set [2] is Neonatal Rat (P1) myofibrils. The experiment in a line: Myofibril ATPase, neonatal rat. Format: biochemical. As for the experimental part: (§1) Myofibrils were prepared from various animals and tissues: rabbit psoas muscle and porcine cardiac muscle were purchased from Pel-Freez Biologicals. Human bicep and soleus muscle were purchased from BioIVT, and neonatal rat muscle was obtained in house. All myofibrils were prepared using published methods ([21]).
(§2) A lactate dehydrogenase/pyruvate kinase enzyme-coupled system ([62]) was used to monitor ATP hydrolysis rates in various muscle preparations. Rabbit psoas myofibrils were used for high-throughput screening at pCa 6.25 at 0.25 mg/mL. A multidrop cassette (Thermo Fisher Scientific) dispensed 10 μL of the coupled enzyme system, calcium, and myofibrils to 10 μL ATP, NADH and PEP to initiate the reaction prior to reading on a plate reader (Envision, Perkin Elmer) for 10 minutes per plate at room temperature. Hits were reconfirmed, and secondary assays were used to evaluate selectivity, including bovine cardiac myofibrils (pCa 5.86) and enzyme coupled hits with a hexokinase screen (Sigma-Aldrich).

The target of the next data set is T2, PKAC-alpha (Homo sapiens, UniProt P17612).
T2 construct: purchased Eurofins DiscoverX (KINOMEscan; SAFETYscan E/IC50 ELECT)
The experiment in a line: KINOMEscan scanEDGE. In kind it is binding. The settings on record: 20 uM.

Another data set has as its target T3, CDK11 (Homo sapiens, UniProt Q9BWU1).
T3 construct: purchased Eurofins DiscoverX (KINOMEscan; SAFETYscan E/IC50 ELECT)
The data set can be described thus: KINOMEscan scanEDGE. The settings on record: 20 uM. Format: binding.

Another data set relates to WT and mdx mice. The data set can be described thus: Voluntary wheel running. In kind it is in vivo, mouse. To be noted: 50 ppm chow. As for the experimental part: Prior to in vivo assessments, mice were dosed PO after a 2-hour fast with 10 mL/Kg suspensions. Grip strength and rotarod assessments were performed masked, 4 hours after dosing using published protocols ([66], [67]). Grip strength was performed with a Columbus Instruments Rodent Force Meter. Forepaw strength represented the average of 5 trials with 30-second rest periods, normalized by BW. Rotarod endurance was performed with a Columbus Instruments RotaMax. Mice were placed on the device drum at 1 rpm, which accelerated 1 rpm every 3 seconds to 12 rpm and a maximal time of 500 seconds. This was repeated 3 times with a 3-minute rest and total time reported. Voluntary wheel running performance was assessed with a customized system. Timestamped RPMs were measured 24 hours per day by infrared sensors, and a custom software calculated distance. Whole-body EBD was visualized after intravenous administration ([35]). EBD in PBS at 10 mg/mL was sterile filtered, and 50 μL/10 g BW was injected via tail vein. After 24 hours, animals were sacrificed, skin was removed and fixed in 4% formalin for 24 hours, and photographed using a Leica/Lumix camera.

A further data set concerns the target T4, PAK2 (Homo sapiens, UniProt Q13177).
T4 construct: purchased Eurofins DiscoverX (KINOMEscan; SAFETYscan E/IC50 ELECT)
The experiment in a line: KINOMEscan scanEDGE. Format: binding. To be noted: 20 uM.

Another data set deals with T5, MARK3 (Homo sapiens, UniProt P27448).
T5 construct: purchased Eurofins DiscoverX (KINOMEscan; SAFETYscan E/IC50 ELECT)
The data set can be described thus: KINOMEscan scanEDGE. The settings on record: 20 uM. In kind it is binding.

The target of a further data set is T6, ACVR1B (Homo sapiens, UniProt P36896).
T6 construct: purchased Eurofins DiscoverX (KINOMEscan; SAFETYscan E/IC50 ELECT)
The experiment in a line: KINOMEscan scanEDGE. In kind it is binding. The settings on record: 20 uM.

Another data set concerns the target T7, NAV1.5 (Homo sapiens, UniProt Q14524).
T7 construct: purchased Eurofins DiscoverX (KINOMEscan; SAFETYscan E/IC50 ELECT)
The experiment in a line: SAFETYscan Ion Channel. The settings on record: read-out: Max Response (%) (Antagonist). Format: cell-based. Details: dose or concentration left out as unconfirmed. As for the experimental part:
(§3) The specificity of EDG-5506 for fast skeletal myosin over other, unrelated proteins was confirmed using two off-target binding and activity screens. […] A second off-target panel (SAFETYscan E/IC50 ELECT, Eurofins DiscoverX) tested in vitro enzyme activity against 78 proteins, including GPCR, ion channel, kinases, nuclear hormone receptors, and transporters. In all assays, the IC50 of EDG-5506 was more than 10 μM (Supplemental Data File 1).

A further data set deals with T8, nAChR(a4/b2) (Homo sapiens, UniProt P17787+P43681).
T8 construct: purchased Eurofins DiscoverX (KINOMEscan; SAFETYscan E/IC50 ELECT)
T8 sequence (P43681 29-627 limits assumed): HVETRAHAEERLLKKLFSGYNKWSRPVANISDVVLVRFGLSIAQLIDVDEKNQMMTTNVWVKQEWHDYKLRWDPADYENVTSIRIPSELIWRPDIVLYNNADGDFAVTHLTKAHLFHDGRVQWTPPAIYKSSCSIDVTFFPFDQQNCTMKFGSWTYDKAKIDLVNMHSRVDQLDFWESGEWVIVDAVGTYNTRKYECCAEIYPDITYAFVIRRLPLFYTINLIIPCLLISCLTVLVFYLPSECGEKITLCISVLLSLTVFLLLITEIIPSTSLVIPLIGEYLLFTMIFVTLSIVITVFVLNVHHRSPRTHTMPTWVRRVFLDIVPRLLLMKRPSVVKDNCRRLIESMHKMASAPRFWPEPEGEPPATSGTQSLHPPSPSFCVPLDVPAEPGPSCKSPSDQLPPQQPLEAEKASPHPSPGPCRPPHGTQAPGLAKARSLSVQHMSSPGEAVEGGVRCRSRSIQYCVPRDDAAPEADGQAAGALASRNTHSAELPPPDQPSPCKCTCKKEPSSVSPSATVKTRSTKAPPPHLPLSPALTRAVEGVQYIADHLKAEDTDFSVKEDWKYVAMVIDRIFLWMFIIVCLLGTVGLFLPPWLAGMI
T8 sequence (P17787 26-502): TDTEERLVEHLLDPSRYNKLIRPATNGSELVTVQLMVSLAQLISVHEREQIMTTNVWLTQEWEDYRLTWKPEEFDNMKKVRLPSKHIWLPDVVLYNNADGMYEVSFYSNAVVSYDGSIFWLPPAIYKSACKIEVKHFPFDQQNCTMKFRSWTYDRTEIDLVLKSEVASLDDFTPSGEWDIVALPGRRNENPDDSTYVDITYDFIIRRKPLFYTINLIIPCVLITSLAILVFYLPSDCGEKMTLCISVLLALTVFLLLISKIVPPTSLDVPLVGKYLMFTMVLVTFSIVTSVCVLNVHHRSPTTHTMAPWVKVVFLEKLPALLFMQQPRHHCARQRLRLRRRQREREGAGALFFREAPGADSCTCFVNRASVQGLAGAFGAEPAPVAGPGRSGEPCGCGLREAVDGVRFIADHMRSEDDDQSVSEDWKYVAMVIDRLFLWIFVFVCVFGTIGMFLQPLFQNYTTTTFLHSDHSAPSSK
The data set can be described thus: SAFETYscan Ion Channel. In kind it is cell-based. On the set-up: dose or concentration left out as unconfirmed. As for the experimental part:
as §3

The target in the next data set is T9, hERG (Homo sapiens, UniProt Q12809).
T9 construct: purchased Eurofins DiscoverX (KINOMEscan; SAFETYscan E/IC50 ELECT)
The experiment in a line: SAFETYscan Ion Channel. In kind it is cell-based. Details: dose or concentration left out as unconfirmed. To be noted: read-out: Max Response (%) (Agonist). As for the experimental part:
as §3

For a further data set, the target named is T10, CAV1.2 (Homo sapiens, UniProt Q13936).
T10 construct: purchased Eurofins DiscoverX (KINOMEscan; SAFETYscan E/IC50 ELECT)
The data set can be described thus: SAFETYscan Ion Channel. Format: cell-based. On the set-up: dose or concentration left out as unconfirmed. The settings on record: read-out: Max Response (%) (Agonist). As for the experimental part:
as §3

The target in another data set is T11, HTR3A (Homo sapiens, UniProt P46098).
T11 construct: purchased Eurofins DiscoverX (KINOMEscan; SAFETYscan E/IC50 ELECT)
T11 sequence (P46098 24-478): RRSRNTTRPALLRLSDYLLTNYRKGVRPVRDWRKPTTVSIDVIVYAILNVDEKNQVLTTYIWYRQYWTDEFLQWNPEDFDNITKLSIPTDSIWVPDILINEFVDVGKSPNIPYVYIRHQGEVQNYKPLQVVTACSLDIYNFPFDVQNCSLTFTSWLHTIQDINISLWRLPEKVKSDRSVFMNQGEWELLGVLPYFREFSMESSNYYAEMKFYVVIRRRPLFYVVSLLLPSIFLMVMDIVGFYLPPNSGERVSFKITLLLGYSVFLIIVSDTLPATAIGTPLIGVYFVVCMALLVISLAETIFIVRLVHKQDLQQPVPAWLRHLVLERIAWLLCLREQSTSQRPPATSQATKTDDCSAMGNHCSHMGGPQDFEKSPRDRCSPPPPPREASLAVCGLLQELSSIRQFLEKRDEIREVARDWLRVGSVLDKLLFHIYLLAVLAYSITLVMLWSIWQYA
The experiment in a line: SAFETYscan Ion Channel. In kind it is cell-based. On the set-up: dose or concentration left out as unconfirmed. As for the experimental part:
as §3

The target of a further data set is T12, NMDAR (1A/2B) (Homo sapiens, UniProt Q05586+Q13224).
T12 construct: purchased Eurofins DiscoverX (KINOMEscan; SAFETYscan E/IC50 ELECT)
T12 sequence (Q13224 27-1484, other chains not shown): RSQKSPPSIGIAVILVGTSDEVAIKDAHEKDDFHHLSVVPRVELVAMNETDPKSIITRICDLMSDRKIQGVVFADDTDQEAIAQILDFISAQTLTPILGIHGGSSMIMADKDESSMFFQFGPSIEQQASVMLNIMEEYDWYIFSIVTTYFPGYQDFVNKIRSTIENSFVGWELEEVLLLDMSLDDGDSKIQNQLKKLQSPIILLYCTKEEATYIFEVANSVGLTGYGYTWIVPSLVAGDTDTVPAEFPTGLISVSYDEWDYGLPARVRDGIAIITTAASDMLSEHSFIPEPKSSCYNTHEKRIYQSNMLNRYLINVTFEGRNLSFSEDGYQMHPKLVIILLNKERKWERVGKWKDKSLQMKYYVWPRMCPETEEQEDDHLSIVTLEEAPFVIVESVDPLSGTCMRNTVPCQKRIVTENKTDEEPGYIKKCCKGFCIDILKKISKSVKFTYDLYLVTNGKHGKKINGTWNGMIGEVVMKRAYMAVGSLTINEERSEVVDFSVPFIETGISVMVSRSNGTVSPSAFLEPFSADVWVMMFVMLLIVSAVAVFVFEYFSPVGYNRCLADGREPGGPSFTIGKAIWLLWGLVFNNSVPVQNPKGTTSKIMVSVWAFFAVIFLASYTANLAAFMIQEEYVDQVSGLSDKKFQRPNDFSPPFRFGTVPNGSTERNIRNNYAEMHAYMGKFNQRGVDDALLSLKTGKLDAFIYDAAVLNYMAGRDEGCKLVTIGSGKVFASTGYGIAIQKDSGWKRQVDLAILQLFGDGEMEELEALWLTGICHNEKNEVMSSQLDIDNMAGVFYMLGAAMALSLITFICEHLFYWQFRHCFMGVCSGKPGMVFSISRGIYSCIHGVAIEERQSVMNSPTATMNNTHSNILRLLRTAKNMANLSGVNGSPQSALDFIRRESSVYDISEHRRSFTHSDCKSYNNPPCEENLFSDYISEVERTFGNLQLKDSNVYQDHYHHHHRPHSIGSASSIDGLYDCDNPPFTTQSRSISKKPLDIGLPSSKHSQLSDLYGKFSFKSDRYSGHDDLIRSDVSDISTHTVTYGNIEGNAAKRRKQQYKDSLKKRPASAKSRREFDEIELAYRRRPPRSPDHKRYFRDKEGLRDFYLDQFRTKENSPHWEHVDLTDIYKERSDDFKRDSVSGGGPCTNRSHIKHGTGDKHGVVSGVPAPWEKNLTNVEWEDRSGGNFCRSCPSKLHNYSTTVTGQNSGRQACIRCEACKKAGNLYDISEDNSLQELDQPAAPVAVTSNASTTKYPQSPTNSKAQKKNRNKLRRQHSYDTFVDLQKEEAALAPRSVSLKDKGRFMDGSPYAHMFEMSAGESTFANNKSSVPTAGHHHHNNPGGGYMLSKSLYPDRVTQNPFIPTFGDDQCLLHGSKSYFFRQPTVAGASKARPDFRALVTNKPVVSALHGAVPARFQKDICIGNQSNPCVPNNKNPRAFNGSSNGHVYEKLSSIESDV
The experiment in a line: SAFETYscan Ion Channel. Format: cell-based. On the set-up: dose or concentration left out as unconfirmed. As for the experimental part: as §3

A further data set deals with T13, KvLQT1/minK (Homo sapiens, UniProt P51787).
T13 construct: purchased Eurofins DiscoverX (KINOMEscan; SAFETYscan E/IC50 ELECT)
The experiment in a line: SAFETYscan Ion Channel. On the set-up: dose or concentration left out as unconfirmed. Format: cell-based. As for the experimental part:
as §3

The target of data set [3] is T14, bovine cardiac myofibrils (Bos taurus, UniProt Q9BE39).
T14 construct: from tissue; host or cells: bovine cardiac ventricle
The experiment in a line: Myofibril ATPase, bovine cardiac. In kind it is biochemical. To be noted: bovine cardiac ventricle; at pCa50. As for the experimental part: as §1, §2

Setting [4] is: read-out: Max Response (%) (Agonist).
[5] abbreviates: read-out: Max Response (%) (Antagonist).

Like-named read-outs stand apart in the source and are kept apart here. A value given as a limit tells only on which side of the number the result lay.

What is called IC50 is the concentration needed to halve the response being measured.

T7 sequence (Q14524 whole entry): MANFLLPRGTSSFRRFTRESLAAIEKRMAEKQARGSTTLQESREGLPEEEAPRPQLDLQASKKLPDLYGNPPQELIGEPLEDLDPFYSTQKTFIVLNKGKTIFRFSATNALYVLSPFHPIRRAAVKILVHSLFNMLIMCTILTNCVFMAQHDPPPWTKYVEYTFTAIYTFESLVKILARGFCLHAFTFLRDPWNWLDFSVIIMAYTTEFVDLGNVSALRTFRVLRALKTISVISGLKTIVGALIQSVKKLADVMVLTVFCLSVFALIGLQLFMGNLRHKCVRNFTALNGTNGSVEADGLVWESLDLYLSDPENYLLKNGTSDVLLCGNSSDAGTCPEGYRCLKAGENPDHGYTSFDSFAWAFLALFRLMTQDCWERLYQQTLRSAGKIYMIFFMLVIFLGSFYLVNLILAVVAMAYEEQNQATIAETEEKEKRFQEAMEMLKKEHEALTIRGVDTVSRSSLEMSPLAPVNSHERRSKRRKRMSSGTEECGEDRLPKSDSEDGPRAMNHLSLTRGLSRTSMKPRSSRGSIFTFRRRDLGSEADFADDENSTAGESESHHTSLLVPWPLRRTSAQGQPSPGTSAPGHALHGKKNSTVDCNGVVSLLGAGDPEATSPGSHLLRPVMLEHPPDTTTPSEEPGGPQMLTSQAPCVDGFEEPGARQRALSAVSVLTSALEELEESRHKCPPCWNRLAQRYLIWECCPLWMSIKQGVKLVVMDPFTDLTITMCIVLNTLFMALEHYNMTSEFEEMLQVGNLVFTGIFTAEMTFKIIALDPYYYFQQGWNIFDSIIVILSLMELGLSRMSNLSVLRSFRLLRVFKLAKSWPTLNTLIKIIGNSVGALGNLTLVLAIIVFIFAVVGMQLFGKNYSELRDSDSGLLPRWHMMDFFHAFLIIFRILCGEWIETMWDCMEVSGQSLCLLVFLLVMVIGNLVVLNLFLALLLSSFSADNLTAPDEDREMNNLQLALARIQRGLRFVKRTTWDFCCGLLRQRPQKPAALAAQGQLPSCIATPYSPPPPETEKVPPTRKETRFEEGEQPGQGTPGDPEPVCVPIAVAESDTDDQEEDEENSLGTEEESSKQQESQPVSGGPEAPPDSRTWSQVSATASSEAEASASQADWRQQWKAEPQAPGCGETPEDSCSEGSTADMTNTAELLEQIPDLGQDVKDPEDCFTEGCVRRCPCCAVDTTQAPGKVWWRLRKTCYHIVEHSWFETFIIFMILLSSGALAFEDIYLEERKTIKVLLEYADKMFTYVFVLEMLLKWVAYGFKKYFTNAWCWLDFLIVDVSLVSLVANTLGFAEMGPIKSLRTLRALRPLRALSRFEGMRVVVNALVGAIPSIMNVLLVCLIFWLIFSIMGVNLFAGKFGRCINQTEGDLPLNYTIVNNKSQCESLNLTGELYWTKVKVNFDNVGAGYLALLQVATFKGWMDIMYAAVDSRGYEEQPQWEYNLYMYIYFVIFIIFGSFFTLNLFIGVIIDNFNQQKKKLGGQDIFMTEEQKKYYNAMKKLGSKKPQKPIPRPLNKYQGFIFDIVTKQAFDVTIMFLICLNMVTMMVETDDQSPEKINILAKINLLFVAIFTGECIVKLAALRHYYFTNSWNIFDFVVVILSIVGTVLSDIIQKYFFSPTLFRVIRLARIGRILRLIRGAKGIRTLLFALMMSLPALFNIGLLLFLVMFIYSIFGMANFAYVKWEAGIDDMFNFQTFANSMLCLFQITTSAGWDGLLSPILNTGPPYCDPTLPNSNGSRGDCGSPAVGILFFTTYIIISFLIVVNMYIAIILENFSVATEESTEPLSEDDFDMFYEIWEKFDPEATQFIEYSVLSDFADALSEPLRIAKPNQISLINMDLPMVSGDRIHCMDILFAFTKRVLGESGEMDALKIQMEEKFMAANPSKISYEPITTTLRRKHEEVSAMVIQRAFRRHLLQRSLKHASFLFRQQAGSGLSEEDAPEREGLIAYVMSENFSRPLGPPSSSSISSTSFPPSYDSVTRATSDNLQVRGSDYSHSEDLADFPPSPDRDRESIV

On to `O=c1ccc(-c2cnc(OCC(F)(F)F)nc2)nn1Cc1cncc(F)c1` [EDG-5506], for which the half-maximal inhibitory concentration (IC50) was greater than 100 µM in [1]; 0.2 µM in data set [2] (neonatal rat (P1), 100% neonatal/embryonic MHC); greater than 100 µM in data set [3]. Moreover, the “Maximum Inhibition (%)” value in data set [2] (neonatal rat (P1) myofibrils) is recorded as 96%. Further, the “binding, % of control” value on PKAC-alpha is recorded as 100 % of control; at CDK11 it was 95 % of control; on PAK2, 98 % of control; at MARK3, 85 % of control; at ACVR1B, 91 % of control. Moreover, in the data set on WT and mdx mice, the wheel running result is reported as “no effect”. In addition, the Emax at NAV1.5 was found to be 2.32%; at nAChR(a4/b2) (setting [4]) it was 0%; at nAChR(a4/b2) (setting [5]), 0%; on hERG it was 13.1%; at CAV1.2, 26.5%; on HTR3A (setting [4]) it was 0.36%. For the same molecule, the Emax on HTR3A (setting [5]) is 8.58%; on NMDAR (1A/2B) (setting [4]), 0%; at NMDAR (1A/2B) (setting [5]), 0%; on KvLQT1/minK (setting [4]), 0%; on KvLQT1/minK (setting [5]), 18.6%.

The values above are taken from PMC10178848, “Modulating fast skeletal muscle contraction protects skeletal muscle in animal models of Duchenne muscular dystrophy” (The Journal of Clinical Investigation, 2023).
